pIC50: −log10 of the molar value.
target: T1, human PAD4 (Homo sapiens, UniProt Q9UM07); assay: In vitro PAD4 BAEE biochemical assay; conditions: BAEE substrate 3 mM, 5 nM PAD4, 2 mM calcium chloride; geometric mean of multiple experiments
T1 construct: human PAD4 (NM_012387), A2-P663, was PCR amplified; His-SUMO (N, cleaved yes); made in house; host or cells: E. coli BL21(DE3)
Procedure, shortened: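 PAD4 5 nM, CaCl2 2 mM, BAEE 3 mM final; 50 mM MOPS pH 7.6, 50 mM NaCl, 0.05% Tween-20, 2 mM DTT. Cpd + enzyme 30 min 25 °C; substrate 2 h 25 °C; EDTA stop; OPA detection 1 h. IC50 4-parameter fit.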

T1 sequence (Q9UM07 2-663): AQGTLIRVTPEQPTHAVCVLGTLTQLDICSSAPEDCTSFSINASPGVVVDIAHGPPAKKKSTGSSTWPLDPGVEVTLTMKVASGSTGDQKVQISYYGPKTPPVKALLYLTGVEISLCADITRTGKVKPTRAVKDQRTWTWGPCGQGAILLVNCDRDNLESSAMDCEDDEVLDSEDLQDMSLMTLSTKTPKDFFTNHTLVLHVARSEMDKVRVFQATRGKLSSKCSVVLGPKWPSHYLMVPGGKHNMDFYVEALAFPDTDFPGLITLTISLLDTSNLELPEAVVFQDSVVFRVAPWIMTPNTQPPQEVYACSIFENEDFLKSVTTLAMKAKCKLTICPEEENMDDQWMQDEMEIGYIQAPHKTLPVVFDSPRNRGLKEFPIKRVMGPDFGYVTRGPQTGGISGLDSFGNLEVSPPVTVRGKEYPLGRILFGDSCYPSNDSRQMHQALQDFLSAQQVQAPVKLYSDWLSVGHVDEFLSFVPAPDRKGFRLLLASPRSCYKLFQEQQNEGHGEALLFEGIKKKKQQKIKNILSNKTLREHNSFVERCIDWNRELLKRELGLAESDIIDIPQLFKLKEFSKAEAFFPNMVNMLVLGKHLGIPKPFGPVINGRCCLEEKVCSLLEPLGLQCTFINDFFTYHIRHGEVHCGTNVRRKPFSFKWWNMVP

First: COc1cc(C(=O)N2C[C@H]3CC[C@@H]2[C@@H]3N)cc2nc(-c3cc4ccc5nc4n3CCCCCCCCCC(=O)N[C@@H]5C)c(C)n12 [Example 290, (13~{R})-19-[7-[(1~{R},4~{R},7~{R})-7-amino-2-azabicyclo[2.2.1]heptane-2-carbonyl]-5-methoxy-3-methyl-imidazo[1,2-a]pyridin-2-yl]-13-methyl-1,12,21-triazatricyclo[12.5.2.0^{17,20}]henicosa-14(21),15,17(20),18-tetraen-11-one]
Second: COc1cc(C(=O)N2CCC[C@@H](N)C2)cc2nc(-c3cc4ccc5nc4n3CCCCCCNC(=O)CO5)c(C)n12 [Example 293, 17-[7-[(3˜{R})-3-aminopiperidine-1-carbonyl]-5-methoxy-3-methyl-imidazo[1,2-a]pyridin-2-yl]-11-oxa-1,8,19-triazatricyclo[10.5.2.0^{15,18}]nonadeca-12(19),13,15(18),16-tetraen-9-one]
The pIC50 of the first is 0.40 log units higher: 6.66 for the first, 6.26 for the second. The first is the more potent here.

Compared with `COc1cc(C(=O)N2CCC[C@@H](N)C2)cc2nc(-c3cc4ccc5nc4n3CCCCCCCCOC5C)n(C)c12` (some centres unmarked) [Example 291, [(3˜{R})-3-amino-1-piperidyl]-[7-methoxy-1-methyl-2-(11-methyl-10-oxa-1,19-diazatricyclo[10.5.2.0^{15,18}]nonadeca-12(19),13,15(18),16-tetraen-17-yl)benzimidazol-5-yl]methanone], `COc1cc(C(=O)N2CCC[C@@H](N)C2)cc2nc(-c3cc4ccc5nc4n3C[C@H]3C[C@@H]3CCCC(C)(C)C(=O)N[C@@H]5C)n(C)c12` [Example 292, (3~{S),5~{S},12~{R})-18-[5-[(3~{R})-3-aminopiperidine-1-carbonyl]-7-methoxy-1-methyl-benzimidazol-2-yl]-9,9,12-trimethyl-1,11,20-triazatetracyclo[11.5.2.0^{3,5}.0^{16,19}] icosa-13(20),14,16(19),17-tetraen-10-one] is 0.81 log units higher in pIC50: 6.47 for the first, 7.28 for the second.

Going from `COc1cc(C(=O)N[C@H]2CNCCC2(F)F)cc2nc(-c3cc4ccc5nc4n3CCCCCCC(C)(C)C(=O)N[C@@H]5C)n(C)c12` [Example 294, ~{N}-[(3~{S})-4,4-difluoro-3-piperidyl]-7-methoxy-1-methyl-2-[(11~{R})-8,8,11-trimethyl-9-oxo-1,10,19-triazatricyclo[10.5.2.0^{15,18}]nonadeca-12(19),13,15(18),16-tetraen-17-yl]benzimidazole-5-carboxamide] to `COc1cc(C(=O)N[C@@H]2CNCCC2(F)F)cc2nc(-c3cc4ccc5nc4n3CCCCCCC(C)(C)C(=O)N[C@@H]5C)n(C)c12` [Example 296, ~{N}-[(3~{R})-4,4-difluoro-3-piperidyl]-7-methoxy-1-methyl-2-[(11~{R})-8,8,11-trimethyl-9-oxo-1,10,19-triazatricyclo[10.5.2.0^{15,18}]nonadeca-12(19),13,15(18),16-tetraen-17-yl]benzimidazole-5-carboxamide], the pIC50 falls from 6.56 to 4.62 (1.94 log units). The first is the more potent here.

Compared with `COc1cc(C(=O)N[C@H]2CNCC[C@H]2O)cc2nc(-c3cc4ccc5nc4n3CCCCCCC(C)(C)C(=O)N[C@@H]5C)n(C)c12` [Example 295, ~{N}-[(3~{S},4~{R})-4-hydroxy-3-piperidyl]-7-methoxy-1-methyl-2-[(11~{R})-8,8,11-trimethyl-9-oxo-1,10,19-triazatricyclo[10.5.2.0^{15,18}]nonadeca-12(19),13,15(18),16-tetraen-17-yl]benzimidazole-5-carboxamide], `COc1cc(C(=O)N2CC[C@@H](OC(F)F)[C@@H](N)C2)cc2nc(-c3cc4ccc5nc4n3CCCCCCC(C)(C)C(=O)N[C@@H]5C)n(C)c12` [Example 297, (11~{R})-17-[5-[(3~{S},4~{R})-3-amino-4-(difluoromethoxy)piperidine-1-carbonyl]-7-methoxy-1-methyl-benzimidazol-2-yl]-8,8,11-trimethyl-1,10,19-triazatricyclo[10.5.2.0^{15,18}]nonadeca-12(19),13,15(18),16-tetraen-9-one] is 1.41 log units higher in pIC50: 5.48 for the first, 6.89 for the second. The second is the more potent here.
